Experimental data from patent US20240217978A1 (CHONG KUN DANG PHARMACEUTICAL CORP., priority 2021, published 2024).

Target: human adenosine A2a receptor (Homo sapiens (Human), UniProt P29274)
Test: A2a receptor binding affinity, [3H]-NECA radioligand binding test
Details: [3H]-NECA 37 nM; membrane from HEK-293 cells transfected with human adenosine A2a receptor
In short: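 Membranes from HEK-293 cells expressing human A2a receptor were incubated with [3H]-NECA (final 37 nM) and compound for 1 h at room temperature in 50 mM Tris, 10 mM MgCl2, 1 mM EDTA, pH 7.4. Bound ligand was filtered on PEI-coated plates and counted by scintillation to derive IC50 (μM).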

human adenosine A2a receptor, sequence (P29274 whole entry): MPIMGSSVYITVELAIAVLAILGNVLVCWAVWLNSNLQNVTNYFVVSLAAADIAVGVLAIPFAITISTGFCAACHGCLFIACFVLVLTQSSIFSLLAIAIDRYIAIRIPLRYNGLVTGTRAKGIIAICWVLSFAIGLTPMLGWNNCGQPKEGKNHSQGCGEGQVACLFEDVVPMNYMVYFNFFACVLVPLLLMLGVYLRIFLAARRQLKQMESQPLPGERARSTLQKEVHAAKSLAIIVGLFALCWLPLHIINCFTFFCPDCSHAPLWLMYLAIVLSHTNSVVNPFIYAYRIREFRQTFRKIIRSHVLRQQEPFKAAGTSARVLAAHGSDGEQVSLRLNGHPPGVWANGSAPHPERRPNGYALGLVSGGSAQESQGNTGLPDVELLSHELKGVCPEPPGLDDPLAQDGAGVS

IC50	Compound
10 nM	CC[C@H](Nc1nc(N)n2nc(-c3ccco3)nc2n1)C(=O)N1CCN(CC(F)(F)C(F)F)CC1 [Example 358, (S)-2-((7-amino-2-(furan-2-yl)-[1,2,4]triazolo[1,5-a][1,3,5]triazin-5-yl)amino)-1-(4-(2,2,3,3-tetrafluoropropyl)piperazin-1-yl)butan-1-one]
4 nM	Nc1nc(N2CCC[C@H]2C(=O)N2CCN(S(=O)(=O)CCOc3ccccc3)CC2)nc2nc(-c3ccco3)nn12 [Example 70, (S)-(1-(7-amino-2-(furan-2-yl)-[1,2,4]triazolo[1,5-a][1,3,5]triazin-5-yl)pyrrolidin-2-yl)(4-((2-phenoxyethyl)sulfonyl)piperazin-1-yl)methanone]
26 nM	C[C@H](Nc1nc(N)n2nc(-c3ccco3)nc2n1)C(=O)N1CCN(CC(F)F)CC1 [Example 316, (S)-2-((7-amino-2-(furan-2-yl)-[1,2,4]triazolo[1,5-a][1,3,5]triazin-5-yl)amino)-1-(4-(2,2-difluoroethyl)piperazin-1-yl)propan-1-one]
6 nM	CC(C)(F)CN1CCC(C2CCN(C(=O)[C@@H]3CCN3c3nc(N)n4nc(-c5ccco5)nc4n3)CC2)CC1 [Example 322, (S)-(1-(7-amino-2-(furan-2-yl)-[1,2,4]triazolo[1,5-a][1,3,5]triazin-5-yl)azetidin-2-yl)(1′-(2-fluoro-2-methylpropyl)-[4,4′-bipiperidin]-1-yl) methanone]
18 nM	CC(C)(F)CN1CCC(C2CCN(C(=O)[C@@H]3CCCN3c3cc4nc(-c5ccco5)nn4c(N)n3)CC2)CC1 [Example 395, (S)-(1-(5-amino-2-(furan-2-yl)-[1,2,4]triazolo[1,5-c]pyrimidin-7-yl)pyrrolidin-2-yl)(1′-(2-fluoro-2-methylpropyl)-[4,4′-bipiperidin]-1-yl)methanone]
12 nM	Nc1nc(N2CCC[C@H]2C(=O)N2CCN(C3CC4CCC3C4)CC2)nc2nc(-c3ccco3)nn12 (stereo partly drawn) [Example 156, ((S)-1-(7-amino-2-(furan-2-yl)-[1,2,4]triazolo[1,5-a][1,3,5]triazin-5-yl)pyrrolidin-2-yl)(4-(bicyclo[2.2.1]heptan-2-yl)piperazin-1-yl)methanone]
5 nM	CCC(C)[C@H](Nc1nc(N)n2nc(-c3ccco3)nc2n1)C(=O)N1CCN(CC(F)(F)F)CC1 (stereo partly drawn) [Example 214, (2S)-2-((7-amino-2-(furan-2-yl)-[1,2,4]triazolo[1,5-a][1,3,5]triazin-5-yl)amino)-3-methyl-1-(4-(2,2,2-trifluoroethyl)piperazin-1-yl)pentan-1-one]
14 nM	Nc1nc(N2CCCC[C@H]2C(=O)N2CCN(CC(F)(F)C(F)F)CC2)nc2nc(-c3ccco3)nn12 [Example 279, (S)-(1-(7-amino-2-(furan-2-yl)-[1,2,4]triazolo[1,5-a][1,3,5]triazin-5-yl)piperidin-2-y1)(4-(2,2,3,3-tetrafluoropropyl)piperazin-1-yl)methanone]
12 nM	COCCOc1ccc(N2CCN(C(=O)[C@@H]3CCCN3c3nc(N)n4nc(-c5ccco5)nc4n3)CC2)cc1 [Example 310, (S)-(1-(7-amino-2-(furan-2-yl)-[1,2,4]triazolo[1,5-a][1,3,5]triazin-5-yl)pyrrolidin-2-yl)(4-(4-(2-methoxyethoxy)phenyl)piperazin-1-yl)methanone]
3 nM	Nc1nc(N[C@H](C(=O)N2CCN(CC(F)(F)F)CC2)C2CCCC2)nc2nc(-c3ccco3)nn12 [Example 217, (S)-2-((7-amino-2-(furan-2-yl)-[1,2,4]triazolo[1,5-a][1,3,5]triazin-5-yl)amino)-2-cyclopentyl-1-(4-(2,2,2-trifluoroethyl)piperazin-1-yl)ethan-1-one]
6 nM	Nc1nc(N2CCC[C@H]2C(=O)N2CCN(C(=O)c3ccccc3)CC2)nc2nc(-c3ccco3)nn12 [Example 46]
6.72 nM	Nc1nc(N[C@H](C(=O)N2CCN(c3ccc(F)cc3F)CC2)c2ccccc2)nc2nc(-c3ccco3)nn12 [Example 7, (S)-2-((7-amino-2-(furan-2-yl)-[1,2,4]triazolo[1,5-a][1,3,5]triazin-5-yl)amino)-1-(4-(2,4-difluorophenyl)piperazin-1-yl)-2-phenylethan-1-one]
3 nM	CC[C@H](Nc1nc(N)n2nc(-c3ccco3)nc2n1)C(=O)N1CCN(C(=O)CC(C)(C)O)CC1 [Example 368, (S)-1-(4-(2-((7-amino-2-(furan-2-yl)-[1,2,4]triazolo[1,5-a][1,3,5]triazin-5-yl)amino)butanoyl)piperazin-1-yl)-3-hydroxy-3-methylbutan-1-one]
1.95 nM	Nc1nc(N2CCC[C@H]2C(=O)N2CCN(Cc3ccc(F)cc3F)CC2)nc2nc(-c3ccco3)nn12 [Example 16, (S)-(1-(7-amino-2-(furan-2-yl)-[1,2,4]triazolo[1,5-a][1,3,5]triazin-5-yl)pyrrolidin-2-yl)(4-(2,4-difluorobenzyl)piperazin-1-yl)methanone]
6 nM	Cc1ccc(-c2nc3nc(N4CCC[C@H]4C(=O)N4CCN(c5ncccn5)CC4)nc(N)n3n2)o1 [Example 203, (S)-(1-(7-amino-2-(5-methylfuran-2-yl)-[1,2,4]triazolo[1,5-a][1,3,5]triazin-5-yl)pyrrolidin-2-yl)(4-(pyrimidin-2-yl)piperazin-1-yl)methanone]
14 nM	Nc1nc(N2CCC[C@H]2C(=O)N2CCC(C(=O)Nc3ccccc3)CC2)nc2nc(-c3ccco3)nn12 [Example 78, 1-((7-amino-2-(furan-2-yl)-[1,2,4]triazolo[1,5-a][1,3,5]triazin-5-yl)-L-prolyl)-N-phenylpiperidin-4-carboxamide]
9 nM	CC(C)(O)CN1CCN(C(=O)[C@@H]2CCN2c2nc(N)n3nc(-c4ccco4)nc3n2)CC1 [Example 350, (S)-(1-(7-amino-2-(furan-2-yl)-[1,2,4]triazolo[1,5-a][1,3,5]triazin-5-yl)azetidin-2-yl)(4-(2-hydroxy-2-methylpropyl)piperazin-1-yl)methanone]
9 nM	Nc1nc(N2CC[C@H]2C(=O)N2CCN(c3ccc(F)cc3F)CC2)nc2nc(-c3ccco3)nn12 [Example 112, (S)-(1-(7-amino-2-(furan-2-yl)-[1,2,4]triazolo[1,5-a][1,3,5]triazin-5-yl)azetidin-2-yl)(4-(2,4-difluorophenyl)piperazin-1-yl)methanone]
15 nM	C[C@H](Nc1nc(N)n2nc(-c3ccco3)nc2n1)C(=O)N1CCN(CC(F)(F)C(F)(F)F)CC1 [Example 319, (S)-2-((7-amino-2-(furan-2-yl)-[1,2,4]triazolo[1,5-a][1,3,5]triazin-5-yl)amino)-1-(4-(2,2,3,3,3-pentafluoropropyl)piperazin-1-yl)propan-1-one]
9 nM	CC(C)(O)CN1CCC(C2CCN(C(=O)[C@@H]3CCN3c3cc4nc(-c5ccco5)nn4c(N)n3)CC2)CC1 [Example 381, (S)-(1-(5-amino-2-(furan-2-yl)-[1,2,4]triazolo[1,5-c]pyrimidin-7-yl)azetidin-2-yl)(1′-(2-hydroxy-2-methylpropyl)-[4,4′-bipiperidin]-1-yl)methanone]
1 nM	C[C@H](Nc1nc(N)n2nc(-c3ccco3)nc2n1)C(=O)N1CC2(CCN(Cc3ccc(F)cc3F)CC2)C1 [Example 30, (S)-2-((7-amino-2-(furan-2-yl)-[1,2,4]triazolo[1,5-a][1,3,5]triazin-5-yl)amino)-1-(7-(2,4-difluorobenzyl)-2,7-diazaspiro[3.5]nonan-2-yl)propan-1-one]
3 nM	CCC(O)(CC)CN1CCN(C(=O)[C@@H](Nc2nc(N)n3nc(-c4ccco4)nc3n2)C2CCCCC2)CC1 [Example 185, (S)-2-((7-amino-2-(furan-2-yl)-[1,2,4]triazolo[1,5-a][1,3,5]triazin-5-yl)amino)-2-cyclohexyl-1-(4-(2-ethyl-2-hydroxybutyl)piperazin-1-yl)ethan-1-one]
8 nM	CCCCN1CCN(C(=O)[C@@H]2CCN2c2nc(N)n3nc(-c4ccc(C)o4)nc3n2)CC1 [Example 222, (S)-(1-(7-amino-2-(5-methylfuran-2-yl)-[1,2,4]triazolo[1,5-a][1,3,5]triazin-5-yl)azetidin-2-yl)(4-butylpiperazin-1-yl)methanone]
8 nM	CC(C)(O)C(=O)N1CCN(C(=O)[C@@H]2CCCN2c2nc(N)n3nc(-c4ccco4)nc3n2)CC1 [Example 274, 1-(4-((7-amino-2-(furan-2-yl)-[1,2,4]triazolo[1,5-a][1,3,5]triazin-5-yl)-L-prolyl)piperazin-1-yl)-2-hydroxy-2-methylpropan-1-one]
10 nM	Nc1nc(N2CC[C@H]2C(=O)N2CCN(CC(=O)N3CCOCC3)CC2)nc2nc(-c3ccco3)nn12 [Example 65, (S)-2-(4-(1-(7-amino-2-(furan-2-yl)-[1,2,4]triazolo[1,5-a][1,3,5]triazin-5-yl)azetidine-2-carbonyl)piperazin-1-yl)-1-morpholinoethan-1-one]
9 nM	CN(CC(F)(F)F)C1CCN(C(=O)[C@@H]2CCCN2c2nc(N)n3nc(-c4ccco4)nc3n2)CC1 [Example 337, (S)-(1-(7-amino-2-(furan-2-yl)-[1,2,4]triazolo[1,5-a][1,3,5]triazin-5-yl)pyrrolidin-2-yl)(4-(methyl(2,2,2-trifluoroethyl)amino)piperidin-1-yl)methanone]
3 nM	CC(F)(F)CN1CCN(C(=O)[C@@H]2CCCN2c2nc(N)c3nc(-c4ccco4)sc3n2)CC1 [Example 259, (S)-(1-(7-amino-2-(furan-2-yl)thiazolo[5,4-d]pyrimidin-5-yl)pyrrolidin-2-yl)(4-(2,2-difluoropropyl)piperazin-1-yl)methanone]

Compound	IC50
C[C@H](Nc1nc(N)n2nc(-c3ccco3)nc2n1)C(=O)N1CCN(CC(F)(F)C(F)(F)C(F)(F)F)CC1 [Example 320, (S)-2-((7-amino-2-(furan-2-yl)-[1,2,4]triazolo[1,5-a][1,3,5]triazin-5-yl)amino)-1-(4-(2,2,3,3,4,4,4-heptafluorobutyl)piperazin-1-yl)propan-1-one]	2 nM
